Reference: a melting point compilation (Tetko et al.; mined from patent text by program, amines drawn as free bases though some values may be those of a salt)

Compound | melting point [°C]
O=C(O)Cn1c(=O)c2cc(Cc3ncc[nH]3)ccc2n(Cc2ccc(Cl)c(Cl)c2)c1=O | 243 to 244
CCN1c2c(oc(=O)n(-c3ccccn3)c2=O)-c2ccccc2S1(=O)=O | 268 to 270
Nc1cc2c(c3ccccc13)C(CCl)CN2C(=O)C(F)(F)F (configuration not stated) | 177
CSc1nnc(Sc2ncnc3c(C)csc23)s1 | 163 to 166
CS(=O)c1c(C#N)nn(-c2c(Cl)cc(C(F)(F)F)cc2Cl)c1NCc1cnccn1 (configuration not stated) | 198
CC(C)n1nc(-c2sc(NC(=O)c3ccccc3)nc2-c2ccccc2)ccc1=O | 126 to 129
COc1ccc2c(=O)cc(-c3ccc(OCC(O)CNC4CC4)cc3)oc2c1 (configuration not stated) | 105 to 106
C#CCN1CCCNC1=C[N+](=O)[O-] | 157 to 158
Cc1ccc(-n2c(-c3ccc(C#C[Si](C)(C)C)cc3)ccc2-c2ccc(C#C[Si](C)(C)C)cc2)cc1 | 223 to 224
CC(C)Oc1ccc(F)c(-c2nn(C(C)c3oc4ccccc4c(=O)c3-c3cccc(F)c3)c3ncnc(N)c23)c1 (configuration not stated) | 198 to 201
CCOCc1nc2cnc3cc(OCc4ccccc4)ccc3c2n1CC1COC(C)(C)O1 (configuration not stated) | 110 to 111
COc1ccc2c(c1)C13CCN(C)C(C2)C1(OC)CCC(=O)C3 (configuration not stated) | 152 to 156
Cc1cccc(C2(CCC(=O)O)NC(=O)NC2=O)c1 (configuration not stated) | 173 to 178
CCCCCCCc1ccc(CCCC(N)(CO)CCO)cc1 (configuration not stated) | 68 to 71
Brc1ccc2c(c1)oc1cc(Br)ccc12 | 199 to 200
Cc1cc(-c2cccc(NC(=O)N[C@@H]3c4cc(C#N)ccc4OC(C)(C)[C@H]3O)c2)on1 | 140 to 148
CCCCN(CC)CC(=O)N1c2ccccc2N(C)C(=O)c2cncnc21 | 131 to 133
CN1CCCC1=NC(=O)Nc1c(Cl)cc(Cl)cc1Cl | 160 to 162
CC1(C)CC(SCc2c(C(F)(F)F)nn(C(C)(C)C)c2Cl)=NO1 | 79 to 81
N#Cc1cccc2c1NCC2 | 66 to 67
CC(C)=CCNc1ncnc2nc(NCCN)[nH]c12 | 96 to 102

Compound | melting point [°C]
CCOC(=O)/C=C/c1ccc(C2COc3c(C)c(C)c(NC(=O)CC(C)(C)C)c(C)c32)cc1 (configuration not stated) | 176 to 177
Nc1ccc(N)c(C(=O)c2ccccc2Cl)c1 | 30 to 40
O=C(CS(=O)Cc1cccnc1)C12CC3CC(CC(C3)C1)C2 (configuration not stated) | 116 to 119
CCCc1nc2c(N)nc3cc(OCCOCCNS(C)(=O)=O)ccc3c2s1 | 134 to 137
N#CCCn1nnc2cc3c(cc2c1=O)OC1CCCN1C3=O (configuration not stated) | 184 to 186
O=c1c2cc3ncn(CCc4cccc(F)c4)c(=O)c3cc2ncn1CCc1cccc(F)c1 | 250 to 251
O=C(c1cccs1)C(Br)c1ccc(F)cc1 (configuration not stated) | 182 to 189
CCCCCCCN(CC(c1ccccc1)c1ccccc1)C(=O)Nc1ccc(F)cc1F | 76 to 78
COC(=O)c1c(F)c(F)c(NCc2ccccc2)c(F)c1F | 96 to 97
COc1ccc(CS(=O)(=O)c2cc3cc(Cl)ccc3oc2=O)cc1 | 224 to 226
CCOC(=O)c1cnoc1-c1ccc(C(F)(F)F)cc1 | 42 to 44
CN(C)CCc1nnc2n1-c1ccc(Cl)cc1C(c1ccccc1Cl)=NC2 | 150 to 153
CCc1c(C)[nH]c(=O)c(N(C)C)c1Cc1cc(C)cc(C)c1 | 229 to 230
CC(C)C1NC(=O)OC1C(F)(F)F (configuration not stated) | 71 to 72
Cn1cnc2nc(C=Cc3ccc(Cl)cc3)nn2c1=S | > 300
Cc1cc(-n2ncnn2)cc2ccc(=O)[nH]c12 | 264 to 266
COC(=O)c1cccc(-c2ccncn2)c1 | 69 to 71
CC1=NC(NC(=O)Nc2cccc(C)c2)C(=O)N(CC(=O)C2CCCCCCC2)c2c(C)cccc21 (configuration not stated) | 163 to 164
Nc1ccc(SC2=CCCCC2)cc1[N+](=O)[O-] | 93 to 95
Cc1nc2cc(OCc3ccccc3)c(OCc3ccccc3)cc2nc1C(=O)OCc1ccccc1 | 137 to 139
CCCc1c(-c2cc(=O)c3c(O)cc(O)cc3o2)ccc(OC)c1O | 200

Compound | melting point [°C]
O=C(Nc1ccc(C(=O)N2CCCC(=NO)c3ccccc32)cc1)c1cc(Cl)cc(Cl)c1 | 272 to 273
CCCCCCCCCC[C@@H]1C(=O)OC(C)=C[C@@H]1C(=O)OC | 40 to 42
C(=NC1CCCCC1)c1cccc(Oc2ccccc2)c1 | 72 to 74
COC(=O)Cc1ccc(OCCNC(=O)OCc2ccccc2)c(F)c1 | 44 to 45
CN1Cc2c(NC(=O)OCc3ccccc3)ncn2-c2ccccc2C1=O | 246 to 247
Cc1nc(NC(=O)c2cnn3c(C(F)(F)F)cc(-c4ccc(C(F)(F)F)c(OCC(F)(F)F)c4)nc23)sc1S(N)(=O)=O | 264
CC(=O)Nc1cccc(C#CCCn2nc3ccccc3n2)n1 | 93 to 94
CCS(=O)(=O)c1ccc2c(c1)nc(CC(C)(C)C)n2CC1(O)CCCC1 | 172
NC1CCN(c2c(F)cc3c(=O)c(C(=O)O)cn(C4CC4)c3c2Cl)C1 (configuration not stated) | 241 to 242
Cn1c(=O)cc(-c2cccc(O)c2)c2cccnc21 | 260 to 261
CC(Cc1ccc2c(c1)OCO2)C(=O)O (configuration not stated) | 121
O=[N+]([O-])c1cc(NCCO)c(Cl)cc1NCCO | 127 to 128
CC(=Nc1ccc(NC(=O)CN)cc1)N(C)C | 142 to 145
Cc1ccc(C(=Cc2nnnn2C)c2ccc(C)cc2C)c(C)c1 | 143 to 144
FS(F)(F)(F)(F)c1cc(Br)cc(S(F)(F)(F)(F)F)c1 | 65.9 to 66.4
Cc1ccc2c(=O)cc(C#N)oc2c1 | 155 to 156
O=C1SC[C@H]2[C@@H]1N(Cc1ccccc1)C(=O)N2Cc1ccccc1 (relative stereo) | 118 to 119
O=P(c1ccccc1)(c1ccccc1)c1nc2ccccc2nc1P(=O)(c1ccccc1)c1ccccc1 | 258 to 272
CCN(CC)C(C)CNc1ccc(NCC(C)N(CC)CC)c2c1C(=O)c1c(O)ccc(O)c1C2=O (configuration not stated) | 126 to 128
CC(C)(C)OC(=O)N[C@H]1CC[C@H](CCOS(C)(=O)=O)CC1 | 116
CC1=C(C#N)S(=O)c2ccc(C(F)(F)F)cc2N1 (configuration not stated) | 290 to 292

The remaining lines, values ahead:

melting point [°C] | Compound
190 to 191 | COCc1cnc2c(NC(=O)c3c(Cl)cccc3Cl)cccc2c1Cn1ccnc1
158 to 159 | CCC1(CC(=O)O)OCCc2c1[nH]c1c(C(C)C)cccc21 (configuration not stated)
75 | Cc1c(C(=O)N(C)c2ccccc2)nc2n1CCc1ccccc1C2OC1CCN(C)CC1 (configuration not stated)
85 to 88 | CC(C)CN1CCN(CCc2ccc(-c3cccc(N)n3)cc2)CC1
185 to 186 | N#CNC(=O)[C@@H]1CCC(=O)N1C(=O)OCc1ccccc1
88 | CC1Oc2ccc(Cl)cc2N(CC(O)CO)C1=O (configuration not stated)
198 | Cc1cc(-c2cc(C(F)F)n3ncc(C(=O)Nc4cccc(S(=O)(=O)N5CCN(C)CC5)c4)c3n2)ccc1C(F)(F)F
206 | COc1ccc2c(c1)-c1c([nH]c3c1-c1cc(OC)ccc1CC3)CC2
187 to 188 | O=[N+]([O-])c1cnn2c(-c3ccccc3)nc3ccccc3c12
153 to 154 | Cc1c(C)c2c(c(C)c1NC(=O)CC(C)(C)C)C(c1ccc(CC(C)C)cc1)CO2 (configuration not stated)
115 to 117 | CC(C#CC1=C(C)C(O)C(O)CC1(C)C)=CCO (configuration not stated)
112 to 113 | O=C(O)CCc1cccc(C(O)(C(F)(F)F)C(F)(F)F)c1
232 to 234 | Cc1cn(C2CCN(c3c(F)c(C)c4c(=O)c(C(=O)O)cn(C5CC5)c4c3F)C2)nn1 (configuration not stated)
105 to 108 | CC(C)(ON1C(C)(C)CC(OC(=O)c2ccccc2)CC1(C)C)c1ccccc1
93.1 to 94.7 | CCOC(=O)C1=Cc2cc(C)ccc2SC1C(F)(F)F (configuration not stated)
118 to 119 | CC(C)C(S)C(=O)NCC(=O)O (configuration not stated)
56.6 to 57.1 | FC(F)(F)Oc1ccc(C2NCCc3ccccc32)cc1 (configuration not stated)
332 to 333 | C[C@H](NC(=O)c1c[nH]c2ncc(-c3cn(-c4cccc(C(F)(F)F)c4)cn3)nc12)C(C)(C)C
150 to 152 | CC1CN(c2ccc(Cl)c(Cl)c2)N=C1NC=O (configuration not stated)
177 to 179 | CCCCn1c(=O)c2c(N(C)C)n[nH]c2n(Cc2ccccc2)c1=O

melting point [°C] | Compound
202 to 203 | COc1ccc(C(=O)Nc2ccccc2)cc1Nc1cccc(NC(C)=O)c1
101 to 103 | CSCC(=O)C(Cc1ccc2ccccc2c1)NC(=O)C(CC(C)C)NC(=O)OCc1ccccc1 (configuration not stated)
189 to 191 | COc1ccc(N2CCOCC2)cc1NC(=S)c1nc2ccc(C)nc2[nH]1
115 to 116 | NCCOc1ncc(Cl)c(N)c1Cl
137 | CC(=O)OC1CSC(Oc2ccc(-c3ccoc3)cc2F)C(OC(C)=O)C1OC(C)=O (configuration not stated)
234 to 236 | CCc1c2c(nn1CC)c(N)nc1ccccc12
132 to 134 | Cc1ccccc1C1SC2(CCN(C)CC2)c2ccccc21 (configuration not stated)
61 to 62 | COc1cccc2c(CCBr)coc12
130 to 131 | CCCCCCC1c2cc(CC#N)ccc2-c2ccc(CC#N)cc21
66 | CCc1nc2c([C@H](O)CO)cccc2cc1C
135 to 136 | Nc1noc(-c2ccc(CN3CCCCCC3)s2)n1
278 to 279 | CCOC(=O)CN(C)CCCNC(=O)C=CC(=O)Nc1ccc2ncnc(Nc3cccc(Br)c3)c2c1
79 to 81 | CC(=O)c1ccc(C(C)Oc2cccc(C(=O)Nc3ccc(C#N)cc3)c2)cc1 (configuration not stated)
61.5 to 62 | O=C(c1ccc(OC(F)(F)F)cc1)c1ccc(C(F)(F)F)cc1
262 to 264 | O=C(Oc1ccc(/C=c2\[nH]c(=O)/c(=C/c3ccccc3)[nH]c2=O)nc1)c1ccncc1
55 | CCCCC(NC(=O)C(CS)C(C)c1ccccc1)C(=O)O (configuration not stated)
90 to 93 | O=C1Cc2cccc3c2N1CCC3
168 to 170 | Nc1cc(N2CCCC2=O)c(Cl)cc1Cl
108 to 113 | CS(=O)(=O)c1ccc(-n2nc(CNC(=O)Nc3cccc(C(F)(F)F)c3)cc2-c2ccccc2)cc1
